Data published in US20210186927A1, “COMBINATION PRODUCT FOR THE INDUCTION AND/OR MAINTENANCE OF GENERAL ANESTHESIA” (priority 2018, published 2021).
Where two headings read alike, the source gives them in different places.

Experiments:
rats [1] = settings: 1.0-3.0 mg/kg i.p.; cited from earlier work
rats [2] = settings: cited from earlier work
male Sprague Dawley rats [3] = type: in vivo, rat
Experimental: The spontaneous righting reflex: Before and at a series of set time points following each bolus injection, the animal was placed on its back and righting time measured. Righting normally occurs under 15 seconds. Whenever the animal was unable to right itself, it was considered that the spontaneous righting reflex had been lost and unconsciousness induced.
Duration of unconsciousness: The time lapse since the loss of the spontaneous righting reflex until its recovery was recorded and considered a measurement of the overall duration of unconsciousness.

monkeys = settings: drug-discrimination study; cited from earlier work
MOR = MOR (Homo sapiens, UniProt P35372); settings: cited from earlier work
MOR, sequence (P35372 whole entry): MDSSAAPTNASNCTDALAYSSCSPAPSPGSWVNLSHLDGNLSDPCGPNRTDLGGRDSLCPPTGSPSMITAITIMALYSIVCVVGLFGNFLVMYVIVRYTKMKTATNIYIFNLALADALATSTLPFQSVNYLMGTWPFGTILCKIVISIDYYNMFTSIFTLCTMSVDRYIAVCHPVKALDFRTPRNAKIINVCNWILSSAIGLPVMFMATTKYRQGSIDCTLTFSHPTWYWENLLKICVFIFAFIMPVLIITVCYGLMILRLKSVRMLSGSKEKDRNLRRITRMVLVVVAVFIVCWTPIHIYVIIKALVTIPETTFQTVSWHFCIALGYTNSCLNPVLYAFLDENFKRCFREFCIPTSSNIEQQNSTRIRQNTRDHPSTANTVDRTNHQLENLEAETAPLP

DOR = DOR (Homo sapiens, UniProt P41143); settings: cited from earlier work
DOR, sequence (P41143 whole entry): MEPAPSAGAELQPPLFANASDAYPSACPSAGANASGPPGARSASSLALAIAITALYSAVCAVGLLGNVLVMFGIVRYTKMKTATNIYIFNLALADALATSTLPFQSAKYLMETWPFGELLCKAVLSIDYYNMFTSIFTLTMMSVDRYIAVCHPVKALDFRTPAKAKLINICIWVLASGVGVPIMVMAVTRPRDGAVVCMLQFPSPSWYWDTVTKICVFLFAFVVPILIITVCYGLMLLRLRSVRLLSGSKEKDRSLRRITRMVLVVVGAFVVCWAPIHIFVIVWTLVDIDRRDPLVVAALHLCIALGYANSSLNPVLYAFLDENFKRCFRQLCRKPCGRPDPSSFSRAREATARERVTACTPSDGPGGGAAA

healthy humans = settings: cited from earlier work
rats [4] = settings: 10 mg/kg i.p.; cited from earlier work
mice [5] = settings: 0.5-2 mg/kg i.p.; cited from earlier work
Rhesus monkeys = settings: cited from earlier work
KOR = KOR (Homo sapiens, UniProt P41145); settings: cited from earlier work
KOR, sequence (P41145 whole entry): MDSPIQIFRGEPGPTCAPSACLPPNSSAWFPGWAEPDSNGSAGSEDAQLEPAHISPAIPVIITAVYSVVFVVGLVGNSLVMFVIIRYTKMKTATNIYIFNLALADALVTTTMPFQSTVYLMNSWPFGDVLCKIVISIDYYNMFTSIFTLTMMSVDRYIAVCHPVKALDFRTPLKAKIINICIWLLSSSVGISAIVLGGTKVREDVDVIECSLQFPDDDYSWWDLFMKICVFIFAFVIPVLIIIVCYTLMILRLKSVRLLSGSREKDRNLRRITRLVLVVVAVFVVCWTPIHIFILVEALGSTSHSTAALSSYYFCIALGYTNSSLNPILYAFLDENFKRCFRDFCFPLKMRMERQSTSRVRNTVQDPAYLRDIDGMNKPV

male Sprague Dawley rats [6] = type: in vivo, rat; remark: listed apart in the source
Experimental: Decreases in spontaneous locomotor and/or exploratory activity: Immediately after administration of each bolus injection, the animal was assessed for any changes in spontaneous locomotor and/or exploratory activity. […] If the spontaneous righting reflex (see here below) had not been lost after dosing but sedation was observed, the animal was monitored at regular intervals to assess the duration of the induced sedation.

rats [7] = settings: 0.25-2 mg/kg i.p.; cited from earlier work
mice [8] = settings: cited from earlier work

**Q.** Which results are given for `COC(=O)[C@@H]1C[C@H](OC(C)=O)C(=O)[C@H]2[C@@]1(C)CC[C@H]1C(=O)O[C@H](c3ccoc3)C[C@]21C` [SA, Salvinorin A]?
**A.** changes in response rates (rats [1]): No significant changes; effect on spontaneous locomotor activity (rats [2]; 0.25-2 mg/kg i.p., rats): did not affect spontaneous locomotor activity; effect on locomotor activity (rats [2]; 0.4 and 0.64 mg/kg subcutaneously, rats): had no effects; effect on locomotor activity (rats [2]; repeated daily injections of 2 mg/kg i.p.): increased locomotor activity; effect on locomotor activity (rats [2]; single 2 mg/kg i.p.): no effect; loss of consciousness or general anesthesia (male Sprague Dawley rats [3]; SA alone 6.2 mg/kg i.v.): no loss of consciousness or general anesthesia; righting time (spontaneous righting reflex) (male Sprague Dawley rats [3]; SA alone 6.2 mg/kg i.v., 10 minutes after injection): 8 s; loss of consciousness or general anesthesia (male Sprague Dawley rats [3]; SA alone 6.4 mg/kg i.p.): no loss of consciousness or general anesthesia; righting time (spontaneous righting reflex) (male Sprague Dawley rats [3]; SA alone 6.4 mg/kg i.p., 1-40 min after injection): 1 to 2 s; loss of consciousness or general anesthesia (male Sprague Dawley rats [3]; SA alone 12.0 mg/kg i.v.): no loss of consciousness or general anesthesia; righting time (spontaneous righting reflex) (male Sprague Dawley rats [3]; SA alone 12.0 mg/kg i.v., 5 minutes after injection): 12 s; loss of consciousness or general anesthesia (male Sprague Dawley rats [3]; SA alone 12.9 mg/kg i.p.): no loss of consciousness or general anesthesia; righting time (spontaneous righting reflex) (male Sprague Dawley rats [3]; SA alone 12.9 mg/kg i.p., 1-40 min after injection): 1 to 2 s; generalization between SA and ketamine (monkeys): did not find that any generalization between the two drugs is applicable; affinity for the MOR (MOR): no affinity; affinity for the DOR (DOR): no affinity; acute effects in humans (healthy humans; acute administration to humans): intense visual and auditory hallucinations without loss of consciousness; dose at which the effects are already noticeable (healthy humans; humans): 0.25 mg; psychometric measurements of sedation (PCAG subscale of the Addiction Research Center Inventory) (healthy humans; humans): no significant dose-dependent increases; antinociceptive effects (rats [4]): no effects; sedation and coordination (mice [5]): mild sedation and a loss of coordination; sedation (Rhesus monkeys; 0.032 mg/kg i.v.): sedative effects; sedation (Rhesus monkeys; 0.032 mg/kg s.c.): did not lead to overt sedation; sedation (Rhesus monkeys; i.v., maximum dose of 0.1 mg/kg): sedative effects; affinity and potency values at the KOR (KOR): nanomolar range; type of activity at the KOR (KOR): full agonist; time at which locomotor and exploratory activity were comparable to pre-injection values (male Sprague Dawley rats [6]; SA alone 6.2 mg/kg i.v.): 30 min; sedation (male Sprague Dawley rats [6]; SA alone 6.2 mg/kg i.v., Example 2 Rat number 2): mild sedation; time at which locomotor and exploratory activity were comparable to baseline (male Sprague Dawley rats [6]; SA alone 6.4 mg/kg i.p.): 30 min; sedation (male Sprague Dawley rats [6]; SA alone 6.4 mg/kg i.p., Example 1 Rat number 2): light sedation; time at which locomotor and exploratory activity were comparable to pre-injection values (male Sprague Dawley rats [6]; SA alone 12.0 mg/kg i.v.): 30 min; sedation (male Sprague Dawley rats [6]; SA alone 12.0 mg/kg i.v., Example 2 Rat number 3): mild sedation; time at which locomotor and exploratory activity were comparable to baseline (male Sprague Dawley rats [6]; SA alone 12.9 mg/kg i.p.): 40 min; sedation (male Sprague Dawley rats [6]; SA alone 12.9 mg/kg i.p., Example 1 Rat number 3): slight sedation of longer duration; immobility in the forced swimming test (rats [7]): increased immobility; analgesic effects (mice [8]; 7.5 μg intracerebroventricularly): active; analgesic effects (mice [8]; 5 mg/kg i.p.): no analgesic effects; antinociceptive effects (mice [8]; 0.5-4 mg/kg intraperitoneally): dose-dependent antinociceptive effects

**Q.** What does the source list for `Cc1cccc(C(C)c2cnc[nH]2)c1C` (centres unmarked) [medetomidine, Medetomidine, reference compound]?
**A.** loss of consciousness or general anesthesia (male Sprague Dawley rats [3]; rat, in vivo): did not induce loss of consciousness or general anesthesia; righting time (spontaneous righting reflex) (male Sprague Dawley rats [3]; rat, in vivo): 2 to 3 s; sedation (male Sprague Dawley rats [6]; rat, in vivo): sedative effect; sedation lasted until (male Sprague Dawley rats [6]; rat, in vivo): 30 min; time to sedation after the injection (male Sprague Dawley rats [6]; rat, in vivo): 30 s

**Q.** Which “loss of consciousness or general anesthesia” value (male Sprague Dawley rats [3]; rat, in vivo) does the source give for `CN1C(=O)CN=C(c2ccccc2)c2cc(Cl)ccc21` [diazepam, Diazepam, reference compound] here?
**A.** did not induce loss of consciousness or general anesthesia

**Q.** And the “righting time (spontaneous righting reflex)” value (male Sprague Dawley rats [3]; rat, in vivo)?
**A.** 2 to 3 s

**Q.** What about the sedation (male Sprague Dawley rats [6]; rat, in vivo) of the same compound?
**A.** clear sedation

**Q.** And the “time of full recovery of spontaneous locomotor and exploratory activity” value (male Sprague Dawley rats [6]; rat, in vivo)?
**A.** 1 h

**Q.** And the “time of partial recovery of spontaneous locomotor and exploratory activity” value (male Sprague Dawley rats [6]; rat, in vivo)?
**A.** 30 min

**Q.** And the “time to decrease in spontaneous locomotor and exploratory activity” value (male Sprague Dawley rats [6]; rat, in vivo)?
**A.** 1 min

**Q.** What about the time to sedation (male Sprague Dawley rats [6]; rat, in vivo) of the same compound?
**A.** immediately after the end of the injection
